Target: CatSper channel complex (Homo sapiens, UniProt Q7RTX7+Q86XQ3+Q8NEC5+Q96P56)
Assay: whole-cell patch clamp:[…] inhibits sirenin-induced ICatSper
Format: cell-based

CatSper channel complex, sequence (Q8NEC5 whole entry): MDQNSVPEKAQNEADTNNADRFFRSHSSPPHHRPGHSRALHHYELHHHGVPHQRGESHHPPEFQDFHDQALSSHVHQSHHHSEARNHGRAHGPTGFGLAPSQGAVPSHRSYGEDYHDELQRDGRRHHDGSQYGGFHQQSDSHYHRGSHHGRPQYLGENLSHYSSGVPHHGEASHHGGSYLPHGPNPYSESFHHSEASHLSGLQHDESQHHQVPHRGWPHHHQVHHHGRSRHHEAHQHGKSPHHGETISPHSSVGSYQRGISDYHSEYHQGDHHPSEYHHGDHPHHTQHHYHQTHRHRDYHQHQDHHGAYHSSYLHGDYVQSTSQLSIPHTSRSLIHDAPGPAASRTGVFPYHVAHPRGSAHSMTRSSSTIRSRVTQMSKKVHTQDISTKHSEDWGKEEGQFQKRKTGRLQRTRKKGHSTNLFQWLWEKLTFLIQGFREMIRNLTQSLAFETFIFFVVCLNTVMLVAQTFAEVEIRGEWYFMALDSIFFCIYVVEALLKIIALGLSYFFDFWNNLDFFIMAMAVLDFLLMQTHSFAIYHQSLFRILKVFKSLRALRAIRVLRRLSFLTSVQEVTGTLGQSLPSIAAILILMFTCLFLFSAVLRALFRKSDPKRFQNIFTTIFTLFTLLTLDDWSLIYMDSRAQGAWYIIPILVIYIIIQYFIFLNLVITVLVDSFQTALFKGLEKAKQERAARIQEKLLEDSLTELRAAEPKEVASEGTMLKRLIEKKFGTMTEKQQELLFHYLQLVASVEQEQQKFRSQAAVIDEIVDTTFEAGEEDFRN
CatSper channel complex, sequence (Q96P56 whole entry): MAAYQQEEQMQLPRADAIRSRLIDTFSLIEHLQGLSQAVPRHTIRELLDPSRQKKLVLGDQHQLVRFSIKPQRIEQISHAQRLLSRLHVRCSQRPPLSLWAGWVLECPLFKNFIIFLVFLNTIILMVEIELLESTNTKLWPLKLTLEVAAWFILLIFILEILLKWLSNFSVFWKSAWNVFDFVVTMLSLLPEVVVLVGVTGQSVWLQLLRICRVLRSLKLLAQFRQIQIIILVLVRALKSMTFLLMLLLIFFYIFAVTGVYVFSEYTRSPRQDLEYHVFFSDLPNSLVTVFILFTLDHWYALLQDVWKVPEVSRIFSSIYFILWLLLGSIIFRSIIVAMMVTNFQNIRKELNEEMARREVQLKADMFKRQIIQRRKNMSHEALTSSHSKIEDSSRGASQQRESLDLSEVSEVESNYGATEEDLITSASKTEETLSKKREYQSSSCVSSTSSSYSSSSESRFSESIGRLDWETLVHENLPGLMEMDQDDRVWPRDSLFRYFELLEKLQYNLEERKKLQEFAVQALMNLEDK
CatSper channel complex, sequence (Q7RTX7 whole entry): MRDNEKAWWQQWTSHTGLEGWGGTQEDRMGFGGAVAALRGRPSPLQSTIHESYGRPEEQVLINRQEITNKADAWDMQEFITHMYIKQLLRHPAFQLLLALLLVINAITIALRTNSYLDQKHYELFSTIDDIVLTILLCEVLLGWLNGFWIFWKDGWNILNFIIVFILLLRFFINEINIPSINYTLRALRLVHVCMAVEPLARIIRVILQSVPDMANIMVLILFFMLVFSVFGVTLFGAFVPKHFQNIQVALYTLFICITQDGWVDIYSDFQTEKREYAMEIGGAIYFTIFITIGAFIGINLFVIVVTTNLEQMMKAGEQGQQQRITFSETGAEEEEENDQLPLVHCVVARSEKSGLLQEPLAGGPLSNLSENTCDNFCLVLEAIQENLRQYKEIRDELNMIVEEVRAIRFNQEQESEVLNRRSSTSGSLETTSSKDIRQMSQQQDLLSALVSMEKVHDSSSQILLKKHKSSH
CatSper channel complex, sequence (Q86XQ3 whole entry): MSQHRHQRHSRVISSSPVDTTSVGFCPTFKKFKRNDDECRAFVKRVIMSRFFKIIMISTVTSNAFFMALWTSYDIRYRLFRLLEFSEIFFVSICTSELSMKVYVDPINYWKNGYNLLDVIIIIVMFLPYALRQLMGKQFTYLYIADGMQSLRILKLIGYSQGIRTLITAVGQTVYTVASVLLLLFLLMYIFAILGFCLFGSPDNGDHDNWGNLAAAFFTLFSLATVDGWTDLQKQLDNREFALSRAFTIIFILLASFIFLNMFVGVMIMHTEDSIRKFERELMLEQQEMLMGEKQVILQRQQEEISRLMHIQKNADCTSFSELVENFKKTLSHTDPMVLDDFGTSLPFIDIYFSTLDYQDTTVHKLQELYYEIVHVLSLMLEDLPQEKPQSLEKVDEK

COCC(=O)O[C@]1(CCN(C)CCCc2nc3ccccc3[nH]2)CCc2cc(F)ccc2[C@@H]1C(C)C [mibefradil]
whole-cell patch clamp: 30 μM inhibits sirenin-induced ICatSper; FLIPR: 55% redu: 30 µM

From publication PMC4761407 (ACS Chemical Biology, 2015)
